Experimental findings from US4241184A, “Secondary alcohol dehydrogenase enzyme and use thereof” (priority 1979, dated 1980) are described below.

Where two headings read alike, the source gives them in different places.

For assay [1], the system named is secondary alcohol dehydrogenase (SADH). Nature of the assay: Purified secondary alcohol dehydrogenase activity (formation of reduced NAD). In kind it is biochemical, Pseudomonas sp. ATCC 21439. How it is done: Secondary alcohol dehydrogenase (SADH) from an obligate methanol utilizer, Pseudomonas sp. ATCC 21439 was purified as follows. […] 0.05 M sodium phosphate buffer, pH 7.0 with 0.5 mM dithiothretol (buffer A) and were disrupted sonically (5×1 min.). The crude extract was separated by centrifugation. The crude extract was heat-treated at 50° C. in a water bath for 10 minutes. The resulting precipitate was removed by centrifugation. To the supernatant solution, 25 ml of protamine sulfate solution (2% solution in 0.1 M Tris base) was added dropwise with continuous stirring. After standing for 30 minutes, the extract was centrifuged. The supernatant solution was fractionated with solid ammonium sulfate. The material precipitating between 30 and 60% saturation was collected and was dialized overnight against buffer A. The The dialized material was applied to a DEAE-cellulose column (3 cm by 35 cm) that had been equilibrated with buffer A. The secondary alcohol dehydrogenase activity was eluted in the void volume. This DEAE-cellulose eluate was concentrated by ammonium sulfate fractionation. Material precipitating between 30 and 50% ammonium sulfate saturation was collected by centrifugation and dialyzed overnight against A. This fraction was further washed and filtered through an Amicon unit with XM 50 membrane. The concentrated fraction (6 ml) inside the Amicon unit was applied to an Affi-Gel Blue column (0.8 cm×18 cm) which had been equilibrated with buffer A for affinity chromatography. The column was washed overnight with buffer A (0.18 ml./min.) and then was eluted with buffer A containing 5 mM NAD. Each 1 ml. fraction was collected.
The purified secondary alcohol dehydrogenase enzyme (SADH) may be used directly for converting C3 -C6 secondary alcohols to the corresponding methyl ketones by the procedures described above; however, a source of NAD^+ must be added to the reaction medium. One can determine the NAD-linked secondary alcohol dehydrogenase activity with a fluorescence spectrophotometer (Perkin Elmer, Model MPF 44A) by following the formation of reduced NAD (Ex 340 nm, Em 460 nm). The assay system (3 ml.) will typically contain: sodium phosphate buffer pH 7.0, 150 μmol; NAD 1.0 μmol; a given amount of enzyme preparation; and 20 μmol secondary alcohol. The reaction is started by the addition of secondary alcohol. One unit of SADH enzyme activity represents the reduction of one nmole NAD per minute.
The effect of metal-chelating agents and thioreagents on the activity of the purified SADH enzyme were studied. […] The possibility of ethanol or n-propanol as an inhibitor was studied.

Assay [2] has as its system secondary alcohol dehydrogenase. Put plainly: Purified yeast secondary alcohol dehydrogenase: substrates, electron acceptors, inhibitors, stoichiometry. Type of assay: biochemical, Pichia sp. NRRL Y-11,328. How it is done: Large scale cultures of Pichia sp. NRRL Y-11,328 were grown with aeration at 30° C. in a 14-liter New Brunswick f fermentor in a mineral salt medium containing methanol (0.4%, v/v) as the sole carbon source. The cells (200 g., wet weight) were suspended in […] sodium phosphate buffer, pH 7.0, containing 1 mM dithiothreitol (buffer A), and crude extracts were prepared as described previously. To the crude extracts, 18 ml. of protamine sulfate solution [2% solution in 0.1 M tris (hydroxymethyl) aminomethane (tris) base] was added dropwise with continuous stirring. After standing for 30 min., the extracts were centrifuged at 20,000×g. for 60 min. The supernatant solution was fractionated with solid ammonium sulfate. Extracts were brought to 50% of saturation with respect to ammonium sulfate by addition of 313 g. of the salt per liter of extract. Precipitated proteins was removed by centrifugation, and 137 g. of ammonium sulfate was added per liter of the supernatant liquid to bring it to 70% of saturation. Material precipitating between 50 and 70% of saturation was collected by centrifugation and dissolved in buffer A. This preparation was dialyzed overnight against buffer A, and the dialyzed material was applied to a DEAE-cellulose column (5×40 cm) that had been equilibrated with buffer A. The sample was washed with 200 ml. of buffer A and eluted with 2 liters of buffer A that contained NaCl in a linear gradient running from a concentration of 0 to 0.5 M. Fractions of 15 ml. were collected. Fractions containing secondary alcohol dehydrogenase activity were pooled and were termed DEAE-cellulose eluate. The DEAE-cellulose eluate was concentrated by ammonium sulfate fractionation.
Secondary alcohol dehydrogenase activity was measured spectrophotometrically at 340 nm with a NAD^+ as an electron acceptor. The reaction mixture, in a total 3.0 ml., contained 50 mM phosphate buffer, pH 8.0, 5μ moles NAD^+, crude extracts, and subtrate. The reactions were started by addition of 100 μl of 0.1 M substrate and the rate of NAD^+ reduction was measured. Protein concentration was determined by the method of Lowry et al.
The substrate specificity of the purified secondary alcohol dehydrogenase was examined spectrophotometrically.

Assay [3] has as its system cell-free extracts of strain ATCC-21439.
Description: The reaction mixtures 3 ml (1.0 mg protein) were incubated at 30°
C. for 10 min. (exp. 1) and for 20 min. (exp. 2) in the presence of 1.0
^a Determined gas chromatographically.
^b Determined fluorescence spectrophotometrically. Endogenous
consumption of NAD was corrected.
Assay [4] concerns P(40) particulate fraction of Methylosinus sp. (CRL-15, NRRL B-11,202). Put plainly: Effect of inhibitors on propylene epoxidation and methane hydroxylation by P(40) fraction. In kind it is biochemical. The following applies: inhibitor 10^-3 M. Here is the method:
The oxidation of methane and propylene by particulate [(P)40 and(P)80] fractions and soluble [S(80)] fraction was measured at 30° C. by estimating the production of methanol and propylene oxide, respectively. The reaction mixtures contained in 1.0 ml: 150 mM potassium phosphate buffer, pH 7.0 containing 5 mM MgCl2, 0.6 ml; 10 μmoles NADH, and cellular fraction.
Reaction mixtures were contained in 10 ml vials at 4° C. Vials were sealed with rubber caps. The gaseous phase in the vials was removed using vacuum and then was replaced with a gas mixture of methane or propylene and oxygen at a 1:1, v/v ratio. Oxidation of other gaseous n-alkanes and n-alkenes was examined as described above. For liquid substrates, 10 μl of substrate was used directly. Vials were then incubated at 30° C. on a rotary shaker at 200 RPM.
It has been reported that the oxidation of methane by cell suspensions of methane-utilizing bacteria was inhibited by various metal-binding or metal-chelating agents (Patel et al., J. Bacteriol. 126: 1017-1019 (1976)). […] (CRL-15, NRRL B-11,202) was examined.

Assay [5] has as its system Methylosinus trichosporium OB3b (NRRL B-11,196). Nature of the assay: Effect of inhibitors on epoxidation of propylene and hydroxylation of methane, cell-containing enzyme preparation. Type of assay: cell-based.
Assay [6] concerns Methylococcus capsulatus (CRL Ml, NRRL B-11,219). The description is as above. Type of assay: cell-based. The following applies: Methylococcus capsulatus.
The subject of assay [7] is Methylobacterium organophilum (CRL 26, NRRL B-11,222). Described as above. In kind it is cell-based.
In assay [8] the test system is methanol-grown Methylococcus capsulatus CRL M1 (NRRL B-11,219). Put plainly: Effect of metal-chelating agents and other inhibitors on production of 2-butanone by cell suspensions. Type of assay: cell-based.
Assay [9] has as its system cell-free particulate fractions derived from the methylotrophic microorganisms. Nature of the assay: Conversion of C3-C6 n-alkanes to sec. alcohols by cell-free particulate fractions: inhibitors and electron donors. In kind it is biochemical. The source says: The conditions for preparing the cell suspensions or the cell-free particulate fractions from methane-grown methylotroph microorganisms is the same as described above. […] Tables XXV and XXVI show the conversion of C3 -C6 n-alkanes to the corresponding secondary alcohols using cell suspensions and cell-free particulate fractions, respectively, of methane-grown methylotroph microorganisms.

The test system of assay [10] is cell suspensions of C1 -utilizers. Nature of the assay: Optimal conditions and inhibition of 2-butanone production from 2-butanol by cell suspensions. In kind it is cell-based. The source says: The following summarizes tests conducted on the optimal conditions for the production of methyl ketones from C3 -C6 sec. alcohols.
Assay [11] deals with Methylobacter vinelandii (CRL M5Y NRRL B-11,218). Put plainly: Microbiological oxidation of cyclic hydrocarbons by methane-grown washed cells. In kind it is cell-based. The source says: Methylobacter vinelandii (CRL M5Y NRRL B-11,218) was aerobically grown in a methane-containing nutrient medium in the manner described in Example 1 and the methane-grown washed cells were contacted under aerobic conditions with cyclohexane, benzene and toluene.

Setting [12] is: NRRLB11, 1 h, read-out: % Inhibition, Epoxidation.
Where [13] appears, read: NRRLB11, 1 h, read-out: % Inhibition, Hydroxylation.
[14] abbreviates: NRRLB11, read-out: Inhibition (%) of production of 2-butanone, 1 mM.
[15] abbreviates: NRRLB11, inhibitor 1 mM, 1 hour at 30° C., read-out: % Inhibition, Epoxidation.
[16] abbreviates: NRRLB11, inhibitor 1 mM, 1 hour at 30° C., read-out: % Inhibition, Hydroxylation.
Where [17] appears, read: purified SADH, each inhibitor 1 mM, measured spectrofluorometrically.

In the case of `CCC(C)O` (stereo not drawn) [2-butanol], in assay [1], the “substrate specificity of purified SADH” value is given as “highest”. Also, the Km (in general, the concentration of substrate that gives half-maximal velocity) in [1] (read-out: Km values) came to 250 µM. Moreover, in assay [2], the “NAD^+ Reduced” value was 5.9 µmol, the Product formed stood at 5.7 µmol and the “oxidation by the purified secondary alcohol dehydrogenase” value is listed as “catalyzed the oxidation”. For the same compound, in assay [3] (experiment 1, 10 min.), the “2-Butanol Consumed” value worked out at 260 nmol. In assay [3] (experiment 2, 20 min.), the “2-Butanol Consumed” value worked out at 530 nmol and the “NAD Consumed” value was 540 nmol.
With `NC(N)=S` [Thiourea], the “% Inhibition, Methane-Hydroxylating Activity” value in assay [4] is 98%. Also, the “% Inhibition, Propylene-Epoxidizing Activity” value in assay [4] was 98%. Further, the inhibition at 1000 µM in [5] (setting [12]), in [5] (setting [13]), in assay [6] (setting [12]), in [6] (setting [13]), in [7] (setting [12]) and in assay [7] (setting [13]) was 100% in each case. In addition, the inhibition (in general, how much of the control response was suppressed) at 1000 µM in assay [8] (setting [14]) worked out at 0%. In assay [9], the “inhibition of the conversion of the n-alkanes to the sec. alcohols” value (shortened to “inhibition … to the sec. alcohols”) is “inhibited”. For the same compound, the “inhibition of production of 2-butanone from 2-butanol by cell suspensions of the strains tested” value (“inhibition of production of 2-butanone” for short) in [10] was “not inhibited”.
As to `O=C(O)CN(CCN(CC(=O)O)CC(=O)O)CC(=O)O` [EDTA], the inhibition at 1000 µM in assay [8] (NRRLB11, read-out: Inhibition (%) of production of 2-butanone) came out at 70%. Moreover, the “% inhibition of SADH activity” value in assay [1] is given as 63%.
On to `c1cnc2c(c1)ccc1cccnc12` [1,10-Phenanthroline], for which the “% Inhibition, Methane-Hydroxylating Activity” value in [4] amounted to 90%. For the same compound, the “% Inhibition, Propylene-Epoxidizing Activity” value in assay [4] is reported as 93%. For the same compound, the inhibition at 1000 µM in [5] (setting [15]) turned out to be 90%; in assay [5] (setting [16]), 92%; in assay [6] (setting [15]), 95%; in [6] (setting [16]), 95%; in [7] (setting [15]), 90%; in [7] (setting [16]), 90%. Further, the inhibition at 1000 µM in assay [8] (setting [14]) was found to be 95%. The “% inhibition of SADH activity” value in assay [1] (setting [17]) is 95%. In addition, in [2], the “inhibition of secondary alcohol dehydrogenase activity” value was “strongly inhibited”. In assay [9], the “inhibition … to the sec. alcohols” value is “inhibited”. For the same compound, the “inhibition of production of 2-butanone” value in assay [10] is “inhibited”.
Consider `C1CCCCC1` [Cyclohexane], for which, in assay [11], the “oxidative conversion rate of cyclic hydrocarbon (cyclohexane to cyclohexanol)” value (“oxidative conversion rate” for short) was 1.5 μmoles/2 hr./mg. protein.
In the case of `Cc1ccccc1` [toluene], the “oxidative conversion rate” value in [11] was “no oxidative conversion was detected”.
Consider `CCC(C)=O` [2-butanone], for which the “inhibition of SADH activity by the product” value in assay [1] is on record as “inhibited”. Moreover, the “product inhibition of 2-butanone production” value in assay [10] (8 μmoles 2-butanone added to viable cell suspensions) is “no product inhibition”.
With `c1ccc(-c2ccccn2)nc1` [α,α -Bipyridyl, α,α-bipyridyl], the “% Inhibition, Methane-Hydroxylating Activity” value in assay [4] is reported as 99%. Moreover, the “% Inhibition, Propylene-Epoxidizing Activity” value in assay [4] turned out to be 98%. Besides, the inhibition at 1000 µM in [5] (setting [12]) was determined as 100%; in assay [5] (setting [13]), 90%; in [6] (setting [12]), 100%; in assay [6] (setting [13]), 100%; in assay [7] (setting [12]), 100%; in assay [7] (setting [13]) it was 100%. The inhibition at 1000 µM in assay [8] (setting [14]) is 75%. Also, the “% inhibition of SADH activity” value in assay [1] (setting [17]) is recorded as 70%. The “inhibition … to the sec. alcohols” value in [9] is “inhibited”. Moreover, in assay [10], the “inhibition of production of 2-butanone” value is “inhibited”.
Take `c1ccccc1` [benzene]: in assay [11], the “oxidative conversion rate” value is reported as “no oxidative conversion was detected”.
